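Grown in 96-well plates, cells were treated for 48 hours with each compound at five concentrations. Insufficient inhibition: endpoint recorded as highest concentration tested. At the TGI there is no net growth.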
How the values were obtained:
Assay in all cases: NCI anticancer screen, dose series, 48 h
[1] = system: RPMI-8226 leukemia
[2] = system: CAKI-1 renal
[3] = system: U251 CNS
[4] = system: CCRF-CEM leukemia
[5] = system: DMS 273 small cell lung
[6] = system: NCI-H460 lung
[7] = system: SN12C renal
[8] = system: OVCAR-8 ovarian
[9] = system: A549 NSCLC
[10] = system: SK-MEL-2 melanoma
[11] = system: SK-MEL-5 melanoma
[12] = system: HOP-92 NSCLC
[13] = system: HCT-116 colon
[14] = system: KM20L2 colon
[15] = system: SNB-78 CNS
[16] = system: A498 renal
[17] = system: KM12 colon
[18] = system: 786-0 renal
[19] = system: OVCAR-4 ovarian
[20] = system: M19-MEL melanoma
[21] = system: DLD-1 colon
[22] = system: NCI-H23 lung
[23] = system: LXFL 529 NSCLC
[24] = system: SW-620 colon
[25] = system: SF-268 CNS
[26] = system: LOX IMVI melanoma
[27] = system: HCT-15 colon
[28] = system: TK-10 renal
[29] = system: DMS 114 small cell lung
[30] = system: SK-OV-3 ovarian
[31] = system: M14 melanoma
[32] = system: RXF 393 renal
[33] = system: HOP-62 NSCLC
[34] = system: COLO 205 colon
[35] = system: UACC-62 melanoma
[36] = system: NCI-H522 lung
[37] = system: EKVX NSCLC
[38] = system: SNB-19 CNS
[39] = system: SR leukemia
[40] = system: XF 498 CNS
[41] = system: OVCAR-3 ovarian
[42] = system: UACC-257 melanoma
[43] = system: UO-31 renal
[44] = system: MOLT-4 leukemia
[45] = system: SF-295 CNS
[46] = system: HL-60(TB) leukemia
[47] = system: ACHN renal
[48] = system: K-562 leukemia
[49] = system: SK-MEL-28 melanoma
[50] = system: HT29 colon
[51] = system: MALME-3M melanoma
[52] = system: HCC-2998 colon
[53] = system: NCI-H226 lung
[54] = system: OVCAR-5 ovarian
[55] = system: SNB-75 CNS
[56] = system: SF-539 CNS
[57] = system: HOP-18 NSCLC

Measured: TGI

O=C1c2ccccc2C(=O)N1CCN(CCN1C(=O)c2ccccc2C1=O)Cc1ccccc1
not listed: [50] | [51] | [52] | [53] | [54] | [55] | [56] | [57]
> 100 µM: all other assays above

O=C(O)C(Cc1ccc(O)cc1)N=Cc1nc(-c2ccccc2)oc1O (stereo unspecified)
not listed: [7] | [20] | [35] | [39] | [44]
> 100 µM: all other assays above

— PubChem BioAssay (NCI)
